{
  "source": "patent US10441630B2",
  "about": "“Topical formulations and uses thereof” (OCULAR TECHNOLOGIES SARL, priority 2012, dated 2019)",
  "key": {"[1]": {"experiment": "Ocular tissue distribution of compound 1001 and RX-10008 by LC-MS/MS", "format": "in vivo, rabbit", "protocol": "A study was conducted in rabbits to test the tolerance and ocular tissue distribution of two nanomicellar formulations of compound 1001 (RX10045) against matching placebos (Table 7a and 7b) and balanced saline solution (BSS). Healthy New Zealand female white rabbits (2-3 kg) were used for this study. One drop (approximately 35 μL) of study drug was applied o.d. 4×/day at two hour intervals for 5 days. One drop of BSS was applied to the contralateral eye.\nSelected ocular fluids/tissues (aqueous humor, vitreous humor, conjunctiva, cornea, iris-ciliary body, lens, retina/choroid, and sclera) collected from two rabbits each in the RX-10045 (0.15% in HCO-60, 0.1% in HCO-40) treatment groups, and from one rabbit in each of the matching placebo groups, were assayed for compound 1001 and another resolvin by liquid chromatography-tandem mass spectrometry (LC-MS/MS). Warfarin-d5 and 5-HDA were used as internal standards for the analysis of RX-10045 and its active metabolite, RX-10008, respectively, in aqueous humor and vitreous humor. For the other ocular tissues (solid tissues), warfarin-d5 and phenyl acetic acid-d5 (PAA-d5) were used as the internal standards for compound 1001 and RX-10008, respectively. The analytical range for the solid tissues were 0.125-100 ng. The results of the solid tissue analyses were converted to ng/g by correcting for the amount of tissue analyzed."}, "[2]": {"experiment": "Weight percent of drug loaded into MNF (entrapment, RP-HPLC)", "format": "physicochemical", "conditions": "HCO-60 4 wt %, Octoxynol-40 0.01 wt %", "protocol": "To determine the entrapment efficiency of the formulation, all the prepared formulations were subjected to entrapment efficiency test. Briefly, formulations were vortex mixed for homogeneity and 1 mL was transferred to a fresh (1.5 mL) eppendorf tube. Each formulation was lyophilized to obtain a solid at the bottom of eppendorf tube. The obtained solid was suspended in 1 mL of organic solvent (diethyl ether) to generate reverse micelles and release the drug into the external organic solvent. The organic solvent was evaporated overnight in speed vacuum. The resultant reversed micelles were resuspended in 1 mL of 2-propanol (dilution factor was taken into account) and further diluted to determine the concentration of compound 1001 entrapped in each micellar preparation with HPLC. The entrapment efficiency of the formulation was calculated with the following formula (wherein MNF=Mixed Nanomicellar Formulation): […]\nIn vitro analysis of compound 1001 was performed by a reversed phase high performance liquid chromatography (RP-HPLC) method with a Shimadzu HPLC pump (Shimadzu, Shimadzu Scientific instruments, Columbia, Md.), Alcott autosampler (model 718 AL), Shimadzu UV/Visible detector (Shimadzu, SPD-20A/20AV, USA), ODS column (5 μm, 150×4.6 mm) thermostated at 40°±1 C and Hewlett Packard HPLC integrator (Hewlett Packard, Palo Alto, Calif.). The mobile phase was comprised of methanol (MeOH), water and trifluoroacetic acid (TFA) (70:30:0.05% v/v) which was set at a flow rate of 0.5 mL/min. Detection wavelength was set at 272 nm. The sample tray temperature was maintained at 4° C. Calibration curve (0.5 to 5 μg/mL) for compound 1001 was prepared by making appropriate dilutions from the stock solution in 2-propanol. An injection volume of 10 μl was injected into the HPLC column for analysis. All the standards and samples prepared were stored at 4° C. before and during the analysis.\n(§1) Mixed nanomicellar formulation encapsulating compound 1001 was prepared by solvent evaporation method in two steps: 1) Preparation of basic formulation and 2) rehydration. In step one, compound 1001, HCO-60 and octoxynol-40 were dissolved separately in 0.3 mL of ethyl acetate. These three solutions were mixed together in 15-mL centrifuge tube. The resultant mixture was vortexed to obtain a homogenous solution. Ethyl acetate solvent was removed with speed vacuum to obtain a solid thin film. The residue was kept overnight under high vacuum at room temperature to remove residual organic solvent. In step two, the resultant thin film was hydrated with 1 mL of double distilled deionized water by vortexing the solution. The rehydrated formulation was suspended in 2× phosphate buffer solution, (pH 6.5). It was filtered through 0.2 μm nylon filter membrane to remove the unentrapped drug aggregates and other foreign particulates. The entrapment of compound 1001 was determined by RP-HPLC following disruption of the micelles and solubilization of 1001 in the diluent (2-propanol) as described below\n(§2) Weight percent of drug loaded into MNF was determined following the method for entrapment efficiency. Size and polydispersity index of the formulations was determined with Malvern zetasizer as described above. The formulations appear clear and have small size and narrow size distribution."}, "[3]": {"experiment": "Mixed nanomicellar size and polydispersity index (Zetasizer) of compound 1001 MNF", "format": "physicochemical", "conditions": "HCO-60 4 wt %, Octoxynol-40 0.01 wt %", "protocol": "The formulation size and polydispersity index were determined with Zetasizer, Malvern Instruments, NJ. In brief, approximately 1 ml of each formulation was transferred to a cuvette and placed in the instrument. A laser beam of light was used to determine the mixed nanomicellar size.\nas §1, §2"}, "[4]": {"experiment": "Appearance of compound 1001 MNF, solvent evaporation method", "format": "physicochemical", "conditions": "HCO-60 4 wt %, Octoxynol-40 0.01 wt %", "protocol": "as §1, §2"}, "[5]": {"conditions": "rabbits, RX-10045 formulations 4×/day for 5 days"}, "[6]": {"conditions": "1001 initially added 0.035 wt %"}, "[7]": {"conditions": "1001 initially added 0.070 wt %"}, "[8]": {"conditions": "1001 initially added 0.095 wt %"}, "[9]": {"conditions": "1001 initially added 0.120 wt %"}, "[10]": {"conditions": "1001 initially added 0.250 wt %"}, "[11]": {"conditions": "1001 initially added 0.300 wt %"}, "[12]": {"conditions": "1001 initially added 0.400 wt %"}},
  "data": [
    {"smiles": "C#CC[C@@H](O)/C=C/C=C/C#C[C@@H](O)CCCC(=O)OC(C)C", "note": "[compound 1001]", "values": [
      {"measurement": "hydrolysis to active metabolite RX-10008", "setting": "[1]; rabbit ocular tissues", "result": "rapidly hydrolyzed"},
      {"measurement": "compound 1001 in the majority of ocular tissues", "setting": "[1]; [5]", "result": "either not detected or was below the quantitation limit"},
      {"measurement": "concentrations of the compound 1001 ester prodrug in the sclera and conjunctiva", "setting": "[1]; [5]", "result": "sporadic, relatively low"},
      {"measurement": "1001 (loaded in mixed micelles) wt %", "setting": "[2]; [6]", "result": 0.033, "unit": "wt %"},
      {"measurement": "1001 (loaded in mixed micelles) wt %", "setting": "[2]; [7]", "result": 0.065, "unit": "wt %"},
      {"measurement": "1001 (loaded in mixed micelles) wt %", "setting": "[2]; [8]", "result": 0.084, "unit": "wt %"},
      {"measurement": "1001 (loaded in mixed micelles) wt %", "setting": "[2]; [9]", "result": 0.11, "unit": "wt %"},
      {"measurement": "1001 (loaded in mixed micelles) wt %", "setting": "[2]; [10]", "result": 0.26, "unit": "wt %"},
      {"measurement": "1001 (loaded in mixed micelles) wt %", "setting": "[2]; [11]", "result": 0.32, "unit": "wt %"},
      {"measurement": "1001 (loaded in mixed micelles) wt %", "setting": "[2]; [12]", "result": 0.45, "unit": "wt %"},
      {"measurement": "Mixed nanomicellar size (nm)", "setting": "[3]; [6]", "result": 24.90, "unit": "nm"},
      {"measurement": "Polydispersity Index", "setting": "[3]; [6]", "result": 0.442},
      {"measurement": "Mixed nanomicellar size (nm)", "setting": "[3]; [7]", "result": 25.01, "unit": "nm"},
      {"measurement": "Polydispersity Index", "setting": "[3]; [7]", "result": 0.414},
      {"measurement": "Mixed nanomicellar size (nm)", "setting": "[3]; [8]", "result": 24.79, "unit": "nm"},
      {"measurement": "Polydispersity Index", "setting": "[3]; [8]", "result": 0.415},
      {"measurement": "Mixed nanomicellar size (nm)", "setting": "[3]; [9]", "result": 18.28, "unit": "nm"},
      {"measurement": "Polydispersity Index", "setting": "[3]; [9]", "result": 0.320},
      {"measurement": "Mixed nanomicellar size (nm)", "setting": "[3]; [10]", "result": 18.37, "unit": "nm"},
      {"measurement": "Polydispersity Index", "setting": "[3]; [10]", "result": 0.331},
      {"measurement": "Mixed nanomicellar size (nm)", "setting": "[3]; [11]", "result": 18.29, "unit": "nm"},
      {"measurement": "Polydispersity Index", "setting": "[3]; [11]", "result": 0.345},
      {"measurement": "Mixed nanomicellar size (nm)", "setting": "[3]; [12]", "result": 18.2, "unit": "nm"},
      {"measurement": "Polydispersity Index", "setting": "[3]; [12]", "result": 0.333},
      {"measurement": "Result", "setting": "[4]; [6]", "result": "Clear/transparent"},
      {"measurement": "Result", "setting": "[4]; [7]", "result": "Clear/transparent"},
      {"measurement": "Result", "setting": "[4]; [8]", "result": "Clear/transparent"},
      {"measurement": "Result", "setting": "[4]; [9]", "result": "Pale yellow color"},
      {"measurement": "Result", "setting": "[4]; [10]", "result": "Yellow color"},
      {"measurement": "Result", "setting": "[4]; [11]", "result": "Yellow color"},
      {"measurement": "Result", "setting": "[4]; [12]", "result": "Yellow color"}
    ]}
  ]
}
